Assay results published in patent publication US20250114389A1, “NUCLEOSIDES AND NUCLEOTIDES ANALOGS AS ANTIVIRAL AGENTS” (Emory University, priority 2021, published 2025).
Read-outs that look alike come from different tables or passages of the source.

What was measured:
[1] = system: SARS-CoV-2; test: Anti-SARS-CoV-2 activity in Vero cells (virus yield inhibition); assay type: cell-based
[2] = system: SARS-CoV-2; test: Anti-SARS-CoV-2 activity in Calu3 cells (virus yield inhibition); assay type: cell-based; details: Severe acute respiratory syndrome coronavirus 2, Calu-3, Table 1
[3] = system: SARS-CoV-2; test: Anti-SARS-CoV-2 activity in Calu3 ALI culture; assay type: cell-based; details: Severe acute respiratory syndrome coronavirus 2, Calu-3; Calu3 air-liquid interface
[4] = system: SARS-CoV-2; test: Anti-SARS-CoV-2 activity in HAE-ALI culture; assay type: cell-based; details: Severe acute respiratory syndrome coronavirus 2; HAE air-liquid interface
[5] = system: SARS-CoV-2; test: Anti-SARS-CoV-2 activity in HAE-HBO (apical-out lung organoids); assay type: cell-based; details: Severe acute respiratory syndrome coronavirus 2
[6] = Cytotoxicity in PBM cells; assay type: cell-based, human; details: human
Method: (§1) The toxicity of the compounds was assessed in Vero, human PBM, CEM (human lymphoblastoid), MT-2, and HepG2 cells, as described previously (see Schinazi R. F., Sommadossi J.-P., Saalmann V., Cannon D. L., Xie M.-Y., Hart G. C., Smith G. A. & Hahn E. F. Antimicrob. Agents Chemother. 1990, 34, 1061-67). Cycloheximide was included as positive cytotoxic control, and untreated cells exposed to solvent were included as negative controls. The cytotoxicity IC50 was obtained from the concentration-response curve using the median effective method described previously (see Chou T.-C. & Talalay P. Adv. Enzyme Regul. 1984, 22, 27-55; Belen'kii M. S. & Schinazi R. F. Antiviral Res. 1994, 25, 1-11).

[7] = Cytotoxicity in CEM cells; assay type: cell-based, human; details: human, CEM lymphoblastoid cells
Method: as §1

[8] = Cytotoxicity in Huh7 cells; assay type: cell-based; details: human
[9] = system: Omicron; test: Anti-Omicron activity in Calu-3; assay type: cell-based, SARS-CoV-2; details: Severe acute respiratory syndrome coronavirus 2
[10] = Non-compartmental PK analysis of IV and oral Compound A in mice; assay type: in vivo; details: for half-life: read-out: mean terminal t1/2 (converted)
Method: A study was performed to measure the concentration of Compound A ([…]) over time (hours) when administered orally at a concentration of 30 mg/kg (FIG. 8A) and intravenously at a concentration of 15 mg/kg (FIG. 8B).

[11] = Single dose range-finding study in Golden Syrian hamsters; assay type: in vivo; details: for Notes (clinical observations): hamster, in vivo, ip
Method: 3 male Syrian hamsters were injected intraperitoneally with a Compound A starting at 5 mg/kg at time 0 with […] administered every 30 minutes upto a final 80 mg/kg. Clinical observations of toxicity were recorded.

[12] = Multi-dose range-finding study in Golden Syrian hamsters; details: hamster, in vivo, po, 30 mg/kg
Method: Multi-dose range-finding study in Golden Syrian Hamsters: 3 male Syrian hamsters were given 30 mg/kg of compound A by oral gavage daily for 7 days. The body weight of each of the individual hamsters during the nucleoside analog treatment was measured (grams per day) over a 7 day period. […] The body temperature of the hamsters was also measured over the course of the treatment in two of the hamsters (FIG. 9, Rodent 1 and Rodent 2). The third hamster lost the chip, and, despite re-chipping, temperatures were still not recording.
Daily observations of the hamsters were taken, particularly with respect to their ability to eat and drink normally, and other behavior and activity ratings (B.A.R.), and the observations are summarized below in Table 10.

[13] = in vitro; details: human
[14] = in vitro; details: human, Caco-2
[15] = Cytotoxicity in Vero cells; details: African green monkey, Vero kidney cells
[16] = system: Omicron; test: microbe, parasite or virus in culture
[17] = system: SARS-CoV-2; test: Anti-SARS-CoV-2 activity in Caco2 cells (virus yield inhibition)
[18] = system: SARS-CoV-2; details: at 1 microM; FIGS. 1A-E (monocytes, epithelial cells, extracellular, total virus)

N#C[C@@]1(n2ccc(N)nc2=O)O[C@H](CO)[C@@H](O)[C@H]1O [Compound A, (2R,3R,4S,5R)-2-(4-amino-2-oxopyrimidin-1(2H)-yl)-3,4-dihydroxy-5-(hydroxymethyl)-tetrahydrofuran-2-carbonitrile]
EC50 ([1]; Severe acute respiratory syndrome coronavirus 2, Table 1, read-out: Anti-SARS-CoV-2 Activity (Vero) EC50): 0.6 µM | EC90 ([1]; Severe acute respiratory syndrome coronavirus 2, Table 1, read-out: Anti-SARS-CoV-2 Activity (Vero) EC90): 2.3 µM | EC50 [2]: 0.02 µM | EC90 [2]: 0.2 µM | EC50 [3]: 1.3 µM | EC90 [3]: 7.4 µM | EC50 [4]: 0.4 µM | EC90 [4]: 1.6 µM | EC50 [5]: 0.3 µM | EC90 [5]: 0.5 µM | CC50 [6]: 92 µM | CC50 [7]: 99 µM | CC50 [8]: > 100 µM | EC50 [9]: 1.8 to 2.1 µM | EC90 [9]: 4.5 to 6.2 µM | oral bioavailability [10]: excellent oral bioavailability | plasma concentration at start of decline ([10]; IV 15 mg/kg, FIG. 8B): around 10 μg/ml | Mean input time (MIT) into plasma of oral dose ([10]; MRTPO−MRTIV): 1.05 h | Ka ([10]; approximation assuming 1-compartment PK, ~1/MIT): ~0.95 h⁻¹ | half-life ([10]; mouse, plasma, 15 mg/kg, IV dose): 2.23 h | half-life ([10]; mouse, plasma, 30 mg/kg, oral dose): 2.47 h | concentration at 7 h ([10]; mouse, plasma, IV 15 mg/kg, over the course of 7 hours, FIG. 8B, read-out: plasma concentration after 7 hours): ~0.1 µg/mL | bioavailability ([10]; mouse, plasma, oral 30 mg/kg vs IV 15 mg/kg, excluding PO_m3): 99.5% | AUC ([10]; mouse, plasma, oral 30 mg/kg, excluding PO_m3 (possible outlier), read-out: mean oral AUCPO): 28.3 µg·h/mL | mean oral CL ([10]; oral 30 mg/kg, excluding PO_m3): 1.06 L/hr per kg | MRTPO ([10]; oral dose): 2.65 h | signs of toxicity ([11]; IP injection, total dose of 80 mg/kg, hamsters): no signs of toxicity | Notes (clinical observations) ([11]; 55 mg/kg): B.A.R.* No sign of discomfort | Notes (clinical observations) ([11]; 80 mg/kg): B.A.R.* No sign of discomfort | Daily Observations [12]: B.A.R. Eating | ability to eat and drink [12]: able to eat and drink normally | CC50 [13]: > 100 µM | CC50 [14]: > 100 µM | CC50 [15]: > 100 µM | EC50 ([16]; Severe acute respiratory syndrome coronavirus 2, Caco-2, read-out: Anti-Omicron Activity (Caco-2) EC50): 1.2 µM | EC90 ([16]; Severe acute respiratory syndrome coronavirus 2, Caco-2, read-out: Anti-Omicron Activity (Caco-2) EC90): 2.2 µM | EC50 ([17]; Severe acute respiratory syndrome coronavirus 2, Caco-2, read-out: Anti-SARS-CoV-2 Activity (Caco2) EC50): 0.3 µM | EC90 ([17]; Severe acute respiratory syndrome coronavirus 2, Caco-2, read-out: Anti-SARS-CoV-2 Activity (Caco2) EC90): 1.2 µM | reduction of viral loads [18]: 2-3 log
